Consider 13 compounds from patent publication US5981558A, “DC107 derivatives” (Kyowa Hakko Kogyo Co., Ltd., priority 1996, dated 1999).

The subject of one test is HeLa S3 cells. In words: HeLa S3 Cell Growth Inhibition Test. Format: cell-based. The note with it: Homo sapiens, HeLa S3, 72 h, 72 hours incubation, Neutral Red. The gist of the method: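 HeLa S3 cells seeded overnight in MEM with 10% FBS, then exposed to compound for 72 h at 37 °C. Viable cells stained with Neutral Red, dye extracted, absorbance read at 550 nm; IC50 derived against untreated cells.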

Test [1] concerns Sarcoma 180 mouse solid tumor. In words: Antitumor activity against Sarcoma 180 mouse solid tumor. It is filed as in vivo, mouse (ddY). The following applies: Sarcoma-180, iv, 168 h; for response vs control in vivo at 4 mg/kg: 4.0 mg/kg i.v. once; for response vs control in vivo at 16 mg/kg: 16 mg/kg i.v. once. Here is the method:
To a ddY mouse were intraperitoneally transplanted 5×10^6 sarcoma 180 cells. On the seventh day from the transplant, the cells were collected from the ascites, washed once with sterilized physiological saline, and then diluted with sterilized physiological saline to prepare a cell suspension having a concentration of 5×10^7 cells/mL. This suspension was transplanted in an amount of 0.01 mL to a subcutaneous part of the right axilla of each of male ddY mice each weighing 20±1 g.
A test compound was dissolved in physiological saline containing polyoxyethylene sorbitan monolaurate. At 24 hours after the tumor transplant, 0.2 mL of the solution was intravenously administered to the tail of each of a group of five mice.

[2] abbreviates: read-out: IC50, HeLa S3 cell growth inhibition, HeLa S3.
[3] abbreviates: read-out: T/C (tumor volume ratio treated/control).
Setting [4] is: HeLa S3, read-out: IC50, HeLa S3 cell growth inhibition.
The mark [5] stands for this setting: 24 hours after transplant, tumor volume on day 7, read-out: T/C (tumor volume ratio treated/control).
Setting [6] is: 8.0 mg/kg i.v. once, 24 hours after transplant, tumor volume on day 7, read-out: T/C (tumor volume ratio treated/control).

Structures are written as SMILES. Where two headings read alike, the source gives them in different places.

A word on the IC50: it is the midpoint of a concentration-inhibition curve. Take `C/C1=C\C(OC2CCCCO2)C(=O)/C=C/C=C\c2csc(n2)C(C)N2C(=O)CC(C(C)(O)C(=O)SCc3oc(=O)oc3COC(=O)c3cnc4ccccc4n3)(CC1)[S+]2[O-]` (centres unmarked) [Compound 94]: the IC50 with HeLa S3 cells (setting [2]) amounted to 33 nM. In addition, the response vs control in vivo at 8 mg/kg in test [1] (setting [3]) was determined as 43%.
As to `COC(=O)NCC(=O)OCSC(=O)C(C)(O)C12CC/C(C)=C/C(OC3CCCCO3)C(=O)/C=C/C=C\c3csc(n3)C(C)N(C(=O)C1)[S+]2[O-]` (centres unmarked) [Compound 40], the IC50 with HeLa S3 cells (setting [4]) came out at 15 nM. In addition, the response vs control in vivo at 4 mg/kg in test [1] (setting [5]) came to 36%.
The matching figures for `CC(=O)Oc1cccc(C(=O)OCSC(=O)C(C)(O)C23CC/C(C)=C/C(OC4CCCCO4)C(=O)/C=C/C=C\c4csc(n4)C(C)N(C(=O)C2)[S+]3[O-])c1` (centres unmarked) [Compound 54]: 15 nM and 47%.
In the case of `COCCOCC(=O)OCc1oc(=O)oc1CSC(=O)C(C)(O)C12CC/C(C)=C/C(O)C(=O)/C=C/C=C\c3csc(n3)C(C)N(C(=O)C1)[S+]2[O-]` (centres unmarked) [Compound 99], the concentration for half-maximal inhibition (IC50) with HeLa S3 cells (setting [4]) stood at 87 nM. Besides, in test [1] (setting [6]), the response vs control in vivo at 8 mg/kg came to 40%.
Consider `C/C1=C\C(O)C(=O)/C=C/C=C\c2csc(n2)C(C)N2C(=O)CC(C(C)(O)C(=O)SCc3oc(=O)oc3COC=O)(CC1)[S+]2[O-]` (centres unmarked) [Compound 88], for which the IC50 in the test on HeLa S3 cells (setting [2]) was 320 nM. For the same compound, in test [1] (setting [3]), the response vs control in vivo at 8 mg/kg is 49%.
Turning to `CC(=O)NC(Cc1ccc(OC(C)=O)cc1)C(=O)OCSC(=O)C(C)(O)C12CCC(C)=CC(O)C(=O)C=CC=Cc3csc(n3)C(C)N(C(=O)C1)[S+]2[O-]` (centres unmarked) [Compound 29], the IC50 in the test on HeLa S3 cells (setting [4]) was determined as 400 nM. Also, in test [1] (setting [5]), the response vs control in vivo at 4 mg/kg was determined as 47%.
`CC1=CC(OC2CCCCO2)C(=O)C=CC=Cc2csc(n2)C(C)N2C(=O)CC(C(C)(O)C(=O)SCOC(=O)C(C)(C)NC(=O)OCc3ccccc3)(CC1)[S+]2[O-]` (single isomer, unassigned) [Compound 4]: the 50% inhibitory concentration (IC50) with HeLa S3 cells (setting [4]) is 39 nM. The response vs control in vivo at 8 mg/kg in test [1] (setting [6]) came out at 30%.
The matching figures for `CC1=CC(OC2CCCCO2)C(=O)C=CC=Cc2csc(n2)C(C)N2C(=O)CC(C(C)(O)C(=O)SCOC(=O)C3CCC(C(=O)O)CC3)(CC1)[S+]2[O-]` (centres unmarked) [Compound 12]: 870 nM and 47%.
As for `CC1=CC(O)C(=O)C=CC=Cc2csc(n2)C(C)N2C(=O)CC(C(C)(O)C(=O)SCOC(=O)CC[C@H](NC(=O)OC(C)(C)C)C(=O)OC(C)(C)C)(CC1)[S+]2[O-]` (some centres unmarked) [Compound 22], the IC50 in the test with HeLa S3 cells (setting [4]) amounted to 7.4 nM. In test [1] (setting [5]), the response vs control in vivo at 4 mg/kg is 42%.
Regarding `CC1=CC(O)C(=O)C=CC=Cc2csc(n2)C(C)N2C(=O)CC(C(C)(O)C(=O)SCOC(=O)CNC(=O)OC(C)(C)C)(CC1)[S+]2[O-]` (centres unmarked) [Compound 16], in the test on HeLa S3 cells (setting [2]), the IC50 is 6.1 nM. Also, the response vs control in vivo at 2 mg/kg in test [1] (setting [3]) is 47%.
On to `COCCOCCOCC(=O)OCc1oc(=O)oc1CSC(=O)C(C)(O)C12CC/C(C)=C/C(O)C(=O)/C=C/C=C\c3csc(n3)C(C)N(C(=O)C1)[S+]2[O-]` (centres unmarked) [Compound 101], for which the IC50 in the test on HeLa S3 cells (setting [4]) stood at 100 nM. Besides, the response vs control in vivo at 16 mg/kg in test [1] (setting [5]) turned out to be 27%.
On to `COCOCc1oc(=O)oc1CSC(=O)C(C)(O)C12CC/C(C)=C/C(OC3CCCCO3)C(=O)/C=C/C=C\c3csc(n3)C(C)N(C(=O)C1)[S+]2[O-]` (centres unmarked) [Compound 78], for which the IC50 in the test on HeLa S3 cells (setting [4]) came out at 2.2 nM. For the same compound, in test [1] (setting [6]), the response vs control in vivo at 8 mg/kg came to 50%.
`COCCOCCOCC(=O)OCc1oc(=O)oc1CSC(=O)C(C)(O)C12CC/C(C)=C/C(OC3CCCCO3)C(=O)/C=C/C=C\c3csc(n3)C(C)N(C(=O)C1)[S+]2[O-]` (centres unmarked) [Compound 102]: in the test with HeLa S3 cells (setting [4]), the IC50 is 38 nM. Moreover, in test [1] (setting [5]), the response vs control in vivo at 16 mg/kg came out at 46%.
